# Experimental data: the supplement of paper PMC10307832
# Columns and labels:
# Assay in all cases: relative viability (nuclei count vs DMSO), 5 days (fraction); higher = more cells survive
# Vandetanib + Pemetrexed = compound: COc1cc2/c(=N/c3ccc(Br)cc3F)nc[nH]c2cc1OCC1CCN(C)CC1 [Vandetanib] + Nc1nc2[nH]cc(CCc3ccc(C(=O)N[C@@H](CCC(=O)O)C(=O)O)cc3)c2c(=O)[nH]1 [Pemetrexed] (partner 0.2 µM)
# How it was run: (§1)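 Lung cancer cell lines were pin-tool dosed in 1536-well plates on the day after seeding, with either a lone drug or a fixed anchor-drug dose plus five library-drug doses (not always all listed) in √10 steps. Nuclei were counted on 4× images after 5 days. Relative viability is the ratio of treated-well to vehicle-well nuclei counts, with each value a median of duplicate plates.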
# CUDC-101 + Dasatinib = compound: C#Cc1cccc(Nc2ncnc3cc(OC)c(OCCCCCCC(=O)NO)cc23)c1 [CUDC-101] + Cc1nc(Nc2ncc(C(=O)Nc3c(C)cccc3Cl)s2)cc(N2CCN(CCO)CC2)n1 [Dasatinib] (partner 0.075 µM)
# How it was run: as §1
# [1] = compound: C1=CC=C2C(=C1)N=C(S2)C(C#N)C3=NC(=NC=C3)NCCC4=CN=CC=C4 + NC(=O)Nc1cc(-c2cccc(F)c2)sc1C(=O)N[C@H]1CCCNC1 [AZD7762] (partner 0.2 µM)
# How it was run: as §1
# [2] = compound: C1=CC=C2C(=C1)N=C(S2)C(C#N)C3=NC(=NC=C3)NCCC4=CN=CC=C4 + CC1(C)CCC(c2ccc(Cl)cc2)=C(CN2CCN(c3ccc(C(=O)NS(=O)(=O)c4ccc(N[C@H](CCN5CCOCC5)CSc5ccccc5)c(S(=O)(=O)C(F)(F)F)c4)cc3)CC2)C1 [Navitoclax] (partner 0.5 µM)
# How it was run: as §1
cell line,measurement,setting,value
LXF-289,relative viability,Vandetanib + Pemetrexed; first compound 0.02 µM,0.916
same,relative viability,Vandetanib + Pemetrexed; first compound 0.06325 µM,0.949
same,relative viability,Vandetanib + Pemetrexed; first compound 0.2 µM,0.885
same,relative viability,Vandetanib + Pemetrexed; first compound 0.6325 µM,0.909
same,relative viability,Vandetanib + Pemetrexed; first compound 2 µM,0.889
same,relative viability,CUDC-101 + Dasatinib; first compound 0.01 µM,0.248
same,relative viability,CUDC-101 + Dasatinib; first compound 0.03162 µM,0.203
same,relative viability,CUDC-101 + Dasatinib; first compound 0.1 µM,0.245
same,relative viability,CUDC-101 + Dasatinib; first compound 0.3162 µM,0.394
same,relative viability,CUDC-101 + Dasatinib; first compound 1 µM,0.182
same,relative viability,[1]; first compound 0.005 µM,1.01
same,relative viability,[1]; first compound 0.01581 µM,1.17
same,relative viability,[1]; first compound 0.05 µM,1.06
same,relative viability,[1]; first compound 0.1581 µM,1.27
same,relative viability,[1]; first compound 0.5 µM,0.982
same,relative viability,[2]; first compound 0.005 µM,0.857
same,relative viability,[2]; first compound 0.01581 µM,0.972
same,relative viability,[2]; first compound 0.05 µM,0.95
same,relative viability,[2]; first compound 0.1581 µM,1
same,relative viability,[2]; first compound 0.5 µM,0.892
CAL-12T,relative viability,Vandetanib + Pemetrexed; first compound 0.02 µM,1.14
same,relative viability,Vandetanib + Pemetrexed; first compound 0.06325 µM,1.2
same,relative viability,Vandetanib + Pemetrexed; first compound 0.2 µM,1.32
same,relative viability,Vandetanib + Pemetrexed; first compound 0.6325 µM,1.18
same,relative viability,Vandetanib + Pemetrexed; first compound 2 µM,1.17
same,relative viability,CUDC-101 + Dasatinib; first compound 0.01 µM,0.72
same,relative viability,CUDC-101 + Dasatinib; first compound 0.03162 µM,0.372
same,relative viability,CUDC-101 + Dasatinib; first compound 0.1 µM,0.346
same,relative viability,CUDC-101 + Dasatinib; first compound 0.3162 µM,0.514
same,relative viability,CUDC-101 + Dasatinib; first compound 1 µM,0.318
same,relative viability,[1]; first compound 0.005 µM,0.571
same,relative viability,[1]; first compound 0.01581 µM,0.575
same,relative viability,[1]; first compound 0.05 µM,0.628
same,relative viability,[1]; first compound 0.1581 µM,0.608
same,relative viability,[1]; first compound 0.5 µM,0.543
same,relative viability,[2]; first compound 0.005 µM,0.993
same,relative viability,[2]; first compound 0.01581 µM,1.38
same,relative viability,[2]; first compound 0.05 µM,1.11
same,relative viability,[2]; first compound 0.1581 µM,1.35
same,relative viability,[2]; first compound 0.5 µM,0.993
NCI-H1975,relative viability,Vandetanib + Pemetrexed; first compound 0.02 µM,0.296
same,relative viability,Vandetanib + Pemetrexed; first compound 0.06325 µM,0.275
same,relative viability,Vandetanib + Pemetrexed; first compound 0.2 µM,0.268
same,relative viability,Vandetanib + Pemetrexed; first compound 0.6325 µM,0.285
same,relative viability,Vandetanib + Pemetrexed; first compound 2 µM,0.306
same,relative viability,CUDC-101 + Dasatinib; first compound 0.01 µM,0.287
same,relative viability,CUDC-101 + Dasatinib; first compound 0.03162 µM,0.373
same,relative viability,CUDC-101 + Dasatinib; first compound 0.1 µM,0.315
same,relative viability,CUDC-101 + Dasatinib; first compound 0.3162 µM,0.413
same,relative viability,CUDC-101 + Dasatinib; first compound 1 µM,0.331
same,relative viability,[1]; first compound 0.005 µM,0.639
same,relative viability,[1]; first compound 0.01581 µM,0.635
same,relative viability,[1]; first compound 0.05 µM,0.711
same,relative viability,[1]; first compound 0.1581 µM,0.743
same,relative viability,[1]; first compound 0.5 µM,0.506
same,relative viability,[2]; first compound 0.005 µM,0.852
same,relative viability,[2]; first compound 0.01581 µM,1.15
same,relative viability,[2]; first compound 0.05 µM,1.03
same,relative viability,[2]; first compound 0.1581 µM,1.18
same,relative viability,[2]; first compound 0.5 µM,0.695
NCI-H647,relative viability,Vandetanib + Pemetrexed; first compound 0.02 µM,0.185
same,relative viability,Vandetanib + Pemetrexed; first compound 0.06325 µM,0.152
same,relative viability,Vandetanib + Pemetrexed; first compound 0.2 µM,0.182
same,relative viability,Vandetanib + Pemetrexed; first compound 0.6325 µM,0.153
same,relative viability,Vandetanib + Pemetrexed; first compound 2 µM,0.175
same,relative viability,CUDC-101 + Dasatinib; first compound 0.01 µM,0.255
same,relative viability,CUDC-101 + Dasatinib; first compound 0.03162 µM,0.198
same,relative viability,CUDC-101 + Dasatinib; first compound 0.1 µM,0.23
same,relative viability,CUDC-101 + Dasatinib; first compound 0.3162 µM,0.224
same,relative viability,CUDC-101 + Dasatinib; first compound 1 µM,0.136
same,relative viability,[1]; first compound 0.005 µM,0.27
same,relative viability,[1]; first compound 0.01581 µM,0.281
same,relative viability,[1]; first compound 0.05 µM,0.513
same,relative viability,[1]; first compound 0.1581 µM,0.512
same,relative viability,[1]; first compound 0.5 µM,0.372
same,relative viability,[2]; first compound 0.01581 µM,1.22
same,relative viability,[2]; first compound 0.05 µM,0.955
same,relative viability,[2]; first compound 0.1581 µM,1.34
same,relative viability,[2]; first compound 0.5 µM,0.979
NCI-H322M,relative viability,Vandetanib + Pemetrexed; first compound 0.02 µM,0.579
same,relative viability,Vandetanib + Pemetrexed; first compound 0.06325 µM,0.615
same,relative viability,Vandetanib + Pemetrexed; first compound 0.2 µM,0.641
same,relative viability,Vandetanib + Pemetrexed; first compound 0.6325 µM,0.604
same,relative viability,Vandetanib + Pemetrexed; first compound 2 µM,0.51
same,relative viability,CUDC-101 + Dasatinib; first compound 0.01 µM,0.28
same,relative viability,CUDC-101 + Dasatinib; first compound 0.03162 µM,0.243
same,relative viability,CUDC-101 + Dasatinib; first compound 0.1 µM,0.224
same,relative viability,CUDC-101 + Dasatinib; first compound 0.3162 µM,0.236
same,relative viability,CUDC-101 + Dasatinib; first compound 1 µM,0.276
same,relative viability,[1]; first compound 0.005 µM,0.522
same,relative viability,[1]; first compound 0.01581 µM,0.522
same,relative viability,[1]; first compound 0.05 µM,0.436
same,relative viability,[1]; first compound 0.1581 µM,0.564
same,relative viability,[1]; first compound 0.5 µM,0.56
same,relative viability,[2]; first compound 0.005 µM,1.24
same,relative viability,[2]; first compound 0.01581 µM,1.24
same,relative viability,[2]; first compound 0.05 µM,1.23
same,relative viability,[2]; first compound 0.1581 µM,1.49
same,relative viability,[2]; first compound 0.5 µM,1.18
